Legend:
[1] = target: calmodulin (Bos taurus, UniProt P62157); assay: Calmodulin inhibitory activity (calmodulin-activated cyclic nucleotide phosphodiesterase, [3H]cGMP); format: biochemical; conditions: 10^-5 M
[2] = system: spontaneous hypertensive rat (SHR); assay: Hypotensive activity in spontaneous hypertensive rat (SHR), Plethysmograph method; format: in vivo; conditions: SHR male rats, oral, 100 mg/kg; for Change of blood pressure, 1 hour: 1 hour after administration; for Change of blood pressure, 5 hours: 5 hours after administration
Procedure: Hypotensive activity in spontaneous hypertensive rat (SHR)
SHR male rats of twenty weeks old were used. They were warmed in an incubator at 37° C. for 5 minutes and the measurement was conducted according to Plethysmograph method. Medicines (the compounds in the above Examples) were suspended in gum arabic-water and were orally administered in an amount of 2.5 ml/kg. Blood pressure was measured before administration of medicines, at 1 hour and at 5 hours after administration, and the change of the value from that before administration was determined, respectively.

[3] = system: rat heart; assay: Effect on incidence of arrhythmia caused by ischemia and following reperfusion in rat heart; format: in vivo; conditions: 1 hour before ligation, until 10 minutes after reperfusion
Procedure: Effect on incidence of arrhythmia caused by ischemia and following reperfusion in rat heart
Male Sprague Dawley rats (Japan Clea) of 9 to 10 weeks old were anesthetized with 50 mg/kg (i.p.) of sodium pentobarbital. The heart was exposed by a left thoractomy under artificial ventilation with room air and silk suture was placed under the main left coronary artery (LAD) to ligate for 5 minutes. Then, the ligature was released again for reperfusion. The incidence of ventricular tachycardia (VT), ventricular fibrillation (VF) and cardiac arrest (CA) caused until 10 minutes after reperfusion were noted. Medicines (compounds obtained in the above Examples) were orally administered (5 ml/kg) at 1 hour before tightening the ligature. The effect of medicines were estimated in comparison with the frequency of a group received a vehicle according to X^2 -test.

[4] = system: rat kidneys; assay: Effect on acute renal failure caused by ischemia and following reperfusion in rat kidneys; format: in vivo; conditions: 1 hour before occlusion, 20 hours after reperfusion
Procedure: Effect on acute renal failure caused by ischemia and following reperfusion in rat kidneys.
SD rats (male) of 6 to 7 weeks old were anesthetized with pentobarbital sodium (50 mg/kg, i.p.) and bilateral renal arteries were ligated. After 45 minutes, a clip was removed to reperfuse. After 20 hours, blood was collected from abdominal aorta under anesthesia with pentobarbital sodium and blood urea nitrogen (BUN) was measured. Medicines (compounds obtained in the above Examples) were orally administered (5 ml/kg) 1 hour before occulusion of renal artery.

[5] = system: experimental ischemic disorders; conditions: in vivo; cited from earlier work
[6] = system: endothelial cells (HUVE cells); assay: Effect on growth of endothelial cells (HUVE cells, basic FGF, MTT method); format: cell-based; conditions: Homo sapiens, Endothelial cell, 72 h, basic FGF 2 ng/ml, 3 days, read-out: IC50 (concentration inhibiting growth of endotherial cells by 50%)
Procedure: This experiment was conducted by using endothelial cells (HUVE cells) obtained from human umbilical vein. […] After 24 hours, human recombinant basic FGF (endotherial cell growth factor) was added thereto in the final concentration of 2 ng/ml and a test compound was further added, followed by cultivation for 3 days.

O=S(=O)(NCCCCOc1cccc2nccn12)C(F)(F)F [Compound 67, 5-[4-(Trifluoromethylsulfonylamino)butyloxy]imidazo[1,2-a]pyridine]
inhibition at 10 µM [1]: 72% | Change of blood pressure, 1 hour [2]: -15.0 mmHg | Change of blood pressure, 5 hours [2]: -22.0 mmHg

CS(=O)(=O)NCCSc1cccc2ncc(CN3CCOCC3)n12 [Compound 14, 5-[2-(methylsulfonylamino)ethylthio]3-morpholinomethylimidazo[1,2-a]pyridine]
inhibition at 10 µM [1]: 85% | CA (Frequency), cardiac arrest ([3]; 10 mg/kg oral): 0/3 | VF (Frequency), ventricular fibrillation ([3]; 10 mg/kg oral): 0/3 | VT (Frequency), ventricular tachycardia ([3]; 10 mg/kg oral): 1/3

CC(=O)Nc1ccc(S(=O)(=O)NCCSc2cccc3nccn23)cc1 [Compound 32, 5-[2-[4-(Acetamido)phenylsulfonylamino]ethylthio]imidazo[1,2-a]pyridine]
inhibition at 10 µM [1]: 62% | CA (Frequency), cardiac arrest ([3]; 30 mg/kg oral): 1/3 | VF (Frequency), ventricular fibrillation ([3]; 30 mg/kg oral): 1/3 | VT (Frequency), ventricular tachycardia ([3]; 30 mg/kg oral): 1/3

CS(=O)(=O)NCCCOc1cccc2nccn12 [Compound 64, 5-[3-(methylsulfonylamino)propyloxy]imidazo[1,2-a]pyridine]
inhibition at 10 µM [1]: 82% | Change of blood pressure, 1 hour [2]: -31.0 mmHg | Change of blood pressure, 5 hours [2]: -27.0 mmHg | CA (Frequency), cardiac arrest ([3]; 30 mg/kg oral): 1/3 | VF (Frequency), ventricular fibrillation ([3]; 30 mg/kg oral): 1/3 | VT (Frequency), ventricular tachycardia ([3]; 30 mg/kg oral): 1/3

CS(=O)(=O)NCCSc1cccc2nccn12 [Compound 1, 5-[2-(methylsulfonylamino)ethylthio]imidazo[1,2-a]pyridine]
inhibition at 10 µM [1]: 94% | Change of blood pressure, 1 hour [2]: -11.2 mmHg | Change of blood pressure, 5 hours [2]: -11.5 mmHg | Blood urea nitrogen ([4]; 10 mg/kg oral): 83.3 ± 20.4 mg/dL | Blood urea nitrogen ([4]; 30 mg/kg oral): 71.1 ± 11.4 mg/dL | Blood urea nitrogen ([4]; 50 mg/kg oral): 65.6 ± 5.1 mg/dL | CA (Frequency), cardiac arrest ([3]; 10 mg/kg oral): 1/4 | VF (Frequency), ventricular fibrillation ([3]; 10 mg/kg oral): 2/4 | VT (Frequency), ventricular tachycardia ([3]; 10 mg/kg oral): 2/4 | CA (Frequency), cardiac arrest ([3]; 30 mg/kg oral): 0/4 | VF (Frequency), ventricular fibrillation ([3]; 30 mg/kg oral): 1/4 | VT (Frequency), ventricular tachycardia ([3]; 30 mg/kg oral): 1/4

O=S(=O)(NCCCSc1cccc2nccn12)C(F)(F)F [Compound 28, 5-[3-(Trifluoromethylsulfonylamino)propylthio]imidazo[1,2-a]pyridine]
inhibition at 10 µM [1]: 72% | Change of blood pressure, 1 hour [2]: -13.5 mmHg | Change of blood pressure, 5 hours [2]: -43.0 mmHg

CN(C)CCCN1c2ccccc2Sc2ccc(Cl)cc21 [chlorpromazine]
effect on experimental ischemic disorders (in words) [5]: effective for experimental ischemic disorders

CC(C)OC(=O)NCCSc1cccc2nccn12 [21']
IC50 [6]: 5 µM

O=S(=O)(NCCCCCOc1cccc2nccn12)C(F)(F)F [Compound 69, 5-[5-(Trifluoromethylsulfonylamino)pentyloxy]imidazo[1,2-a]pyridine]
inhibition at 10 µM [1]: 57% | Change of blood pressure, 1 hour [2]: -7.0 mmHg | Change of blood pressure, 5 hours [2]: -32.0 mmHg

O=S(=O)(NCCSc1cccc2nccn12)C(F)(F)F [Compound 26, 5-[2-(Trifluoromethylsulfonylamino)ethylthio]imidazo[1,2-a]pyridine]
inhibition at 10 µM [1]: 100% | CA (Frequency), cardiac arrest ([3]; 10 mg/kg oral): 1/3 | VF (Frequency), ventricular fibrillation ([3]; 10 mg/kg oral): 1/3 | VT (Frequency), ventricular tachycardia ([3]; 10 mg/kg oral): 2/3
